Read-outs that look alike come from different tables or passages of the source.
Columns and labels:
HepG2 cells [1] = test: Cell viability assay (CCK-8) in HepG2 cells; assay type: cell-based, human; settings: for IC50: HepG2, 48 h, CCK-8, read-out: IC50 for inhibitory effect on HepG2 cell viability
Protocol: (§1) Cell viability was determined by our previous method[27] using the Cell Counting Kit-8 (CCK-8, Dojindo, Japan). In human hepatocellular carcinoma cell line HepG2, cells were seeded in 96-well plate and starved for over 12 h with serum-free DMEM at 60~70% confluency, then treated with compounds or vehicle for 48 h. To determine the IC50 values of inhibitors, compounds with various concentrations were added into the 96-well plate. 10 μl CCK-8 solution was added to the culture medium and incubated at 37 °C for 1 h. The absorbance at 450 nm (A450) was detected by a plate reader. Each experiment was carried out in triplicate in three replicate wells. The IC50 values were determined by non-linear fitting of the concentration-dependent curves with the four-parameter IC50 logistic equation.

HepG2 cells [2] = test: Live cell fluorescence imaging of compounds in HepG2 cells; assay type: cell-based, human; settings: 3 μM, 30 minutes incubation, washed
Protocol: NAMPT knockdown in HepG2 cells was performed by transfection of NAMPT siRNA synthesized by Shanghai GenePharma Co., Ltd (Shanghai, China). The siRNA sequence targeting NAMPT corresponded to coding regions (5′-[…]-3′, 5′-[…]-3′) of the NAMPT gene. The nonspecific siRNA oligonucleotides (synthesized by Shanghai GenePharma Co., Ltd, Shanghai, China) were used as negative controls. 10 nM of NAMPT siRNA or nonspecific siRNA were transfected into HepG2 cells with Lipofectamine RNAiMax reagent (Invitrogen, CA, USA) according to the manufacturer’s instructions. After 24 or 48 hours, transfected cells were subjected to subsequent analysis.
For imaging experiment, HepG2 cells or primary hepatocytes were seeded into 35-mm glass bottom dishes (In Vitro Scientific). The following day, compounds were added to the medium at a final concentration of 3 μM. After 30 minutes, cells were rinsed twice with PBS (pH 7.5), then incubated in fresh culture medium and imaged on a fluorescence microscope (IX-71, Olympus) with a digital camera (Olympus). After 4 hours, these cells were imaged once again. Digital images were recorded and analyzed using ImageJ.

HepG2 NAD levels = test: Cellular NAD measurement (enzymatic cycling assay) in HepG2 cells; assay type: cell-based, human
Protocol: Cellular level of NAD was measured by spectrophotometric enzymatic cycling assay, as described previously. Briefly, cells were seeded in 96-well plate and starved for over 12 h with serum-free DMEM at 60~70% confluency, following by treatment with compounds or vehicle for 24 h. Cells were lysed with 50 μl of 1M HClO4 on ice for 30 min. The lysates were cleared by centrifuging at 4 °C at 18,000 × g for 5 min, and cleared lysates (40 μl) were neutralized by adding 1M K2CO3 (16 μl) and incubation on ice for 20 min. After centrifuging for 10 min, 10 μl of supernatant were mixed with reaction buffer [50 mM Tris-HCl (pH 7.5), 3% ethanol, 1.66 mM PES (phenazineethosulfate), 0.42 mM MTT (3-(4,5-dimethylthiazolyl-2)-2,5-diphenyltetrazolium bromide), 90 μg/ml ADH] in a total volume of 100 ul, and incubated at 37 °C for 40 min. The absorbance at 570 nm was determined. A blank measurement without ADH was also carried out. Each experiment was carried out in triplicate in three replicate wells

Huh-7 cell = test: Cell viability in Huh-7 cells; assay type: cell-based, human; settings: Huh-7, Figure S2
Excerpt: However, IC50 values for other 5 fluorescent compounds were able to be determined (Supplemental dataset S2). We then measured the fluorescence of all 9 fluorescent compounds at a series of different concentrations.

[3] = test system: primary mouse hepatocytes; test: Cell viability of primary hepatocytes from normal mice; assay type: cell-based; settings: 30 μM
Protocol: as §1
Hepatocytes were isolated from mouse liver by the two-step collagenase perfusion method. […] For imaging experiment, 1 × 10^5 cells were plated in a 35-mm glass bottom dishes or 5 × 10^4 were plated in 48-well plate for cell viability assay in DMEM supplemented with 10% FBS and antibiotics, and kept under an atmosphere of 95% air and 5% CO2 at 37 °C.

In the case of `Cc1nc2ccccc2n(Cc2ccc(C(=O)NCc3cccnc3)cc2)c1=O` [F671-0003], the “Effect on HepG2 cell viability at 2 μM” value (HepG2 cells [1]; 2 μM, 48 hours of incubation) is reported as “significant inhibition on cell viability”, the “Inhibition on cell viability” value (HepG2 cells [1]; HepG2, 2 μM, 48 h) is reported as 50% and the “Rescue of cell viability by exogenous NMN” value (HepG2 cells [1]; HepG2, 3 μM compound, NMN at 300 μM) is reported as “totally rescued”. The IC50 (HepG2 cells [1]) was 1690 ± 150 nM, the IC50 (HepG2 cells [1]; Homo sapiens) was roughly 2000 nM and the “Cellular fluorescence in living HepG2 cells” value (HepG2 cells [2]) was “did not show any fluorescence”. The “Decrease of cellular NAD level” value (HepG2 NAD levels; HepG2, 1 μM, 24 hours) was ~ 80%, the IC50 (HepG2 NAD levels; Homo sapiens, HepG2, 24 hours treatment, read-out: IC50 for reducing NAD level) was 6.71 nM and the “Effect on Huh-7 cell viability” value (Huh-7 cell) was “Inhibitory effects”. For the same compound, the “Inhibition of normal hepatocytes viability” value [3] was ~ 20%.
